Patent US20230312564A1, “AROMATIC RING-LACTAM COMPOUND, PREPARATION METHOD THEREFOR AND USE THEREOF” (SHANGHAI RINGENE BIOPHARMA CO., LTD., priority 2020, published 2023)

What was measured:
[1] = Liver microsomal stability, comparisons in words across species; format: in vitro ADME; conditions: different species; versus the comparative compounds
Description: (§1) The reaction was stopped with tinidazole-containing acetonitrile at 0 min, 5 min, 10 min and 30 min, respectively. After vortexing for 10 min and centrifuging at 15,000 rmp for 10 min, 50 μL of the supernatant was injected into a 96-well plate. The metabolic stability of the compound was calculated by determining the relative reduction of the drug, calculated as half-life T1/2.

[2] = In-vivo pharmacokinetic parameters in mice; design: species or system Balb-c mice
In short: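 Male SD rats or Balb-c mice were dosed intravenously at 1 mg/kg or orally at 5 mg/kg. Jugular-vein plasma was sampled up to 24 h and analysed by LC-MS/MS. Non-compartmental analysis gave AUC, MRT, Cmax, Tmax, T1/2, Vd and oral bioavailability (F).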

Colo-205 cells = test: Colo-205 tumor cell proliferation, CCK-8, 72 hours; format: cell-based
[3] = In-vivo pharmacokinetic parameters in SD rats
Description: Six male SPF grade SD rats or Balb-c mice (Shanghai Sipple-Bikai Laboratory Animal) were divided into two groups, and the tested compounds were prepared into appropriate solutions or suspensions; one group was administered intravenously (with a dose of 1 mg/kg), and the other group was administered orally (with a dose of 5 mg/kg). Blood samples were collected by jugular vein puncture, and each sample was collected with a volume of about 0.2 mL/time point, and heparin sodium was used for anticoagulation. The time points of blood collection were listed below: 5, 15 and 30 min […], 1, 2, 4, 6, 8 and 24 h after administration; the collected blood samples were placed on ice and centrifuged to separate plasma (centrifugation conditions: 8,000 rpm, 6 min, 2 to 8° C.), and the collected plasma was stored at −80° C. before analysis. Plasma samples were analyzed by LC-MS/MS.
The pharmacokinetic parameters such as AUC0-t, AUC0-∞, MRT0-∞, Cmax, Tmax, T1/2 and Vd of the tested compounds and their mean values and standard deviations were calculated by the pharmacokinetic calculation software WinNonlin5.2 non-compartmental model according to the plasma concentration data. In addition, the bioavailability (F) was calculated by the following formula.
For samples with concentrations below the lower limit of quantitation, while pharmacokinetic parameter calculations were performed, samples sampled before Cmax was reached should be calculated as a zero value and samples sampled after Cmax was reached should be calculated as below limit of quantitation (BLQ).

CYP3A4 = biological target: T1, CYP3A4 (Homo sapiens, UniProt P08684); test: Direct inhibition test (DI test) in human liver microsomes, CYP3A4; format: in vitro ADME
T1 construct: A system containing 100 μL of human liver microsomes; from tissue; host or cells: human liver microsomes
T1 sequence (P08684 whole entry): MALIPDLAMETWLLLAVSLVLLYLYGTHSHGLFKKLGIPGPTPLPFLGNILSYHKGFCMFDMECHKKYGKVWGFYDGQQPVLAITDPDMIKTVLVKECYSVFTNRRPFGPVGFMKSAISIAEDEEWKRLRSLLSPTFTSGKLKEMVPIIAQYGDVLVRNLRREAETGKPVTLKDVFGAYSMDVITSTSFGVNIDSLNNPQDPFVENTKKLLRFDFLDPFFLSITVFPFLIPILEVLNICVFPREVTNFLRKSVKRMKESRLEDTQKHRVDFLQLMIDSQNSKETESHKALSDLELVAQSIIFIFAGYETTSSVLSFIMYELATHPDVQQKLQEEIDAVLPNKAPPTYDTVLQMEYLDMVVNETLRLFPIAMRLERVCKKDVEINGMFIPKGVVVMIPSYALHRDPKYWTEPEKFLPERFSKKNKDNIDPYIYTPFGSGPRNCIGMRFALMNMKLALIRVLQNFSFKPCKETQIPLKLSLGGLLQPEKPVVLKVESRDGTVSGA
Description: (§2) (2) Direct inhibition test (DI test): A system containing 100 μL of human liver microsomes (final concentration of 0.2 mg/mL) was subjected to a direct inhibition incubation, and the system contained NADPH (final concentration of 1 mM), 10 μM compound, positive inhibitor cocktail (10 μM ketoconazole, 10 μM quinidine, 100 μM sulfaphenazole, 10 μM α-naphthoflavone, 1,000 μM tranylcypromine), negative control (BPS of 0.1% DMSO), and mixed probe substrates (10 μM midazolam, 100 μM testosterone, 10 μM dextromethorphan, […], 100 μM phenacetin, 100 μM mephenytoin). After 20 minutes of incubation, the reaction was stopped. The relative activity of the enzyme was calculated by measuring the relative production of metabolites.

[4] = Liver microsomal metabolic stability, human; format: in vitro ADME; conditions: liver microsomes, 0.5 mg/mL microsomes, 1 μM compound, NADPH, read-out: Liver microsomal stability T1/2
Description: as §1

CYP2D6 = biological target: T2, CYP2D6 (Homo sapiens, UniProt P10635); test: Direct inhibition test (DI test) in human liver microsomes, CYP2D6; format: in vitro ADME
T2 construct: A system containing 100 μL of human liver microsomes; from tissue; host or cells: human liver microsomes
T2 sequence (P10635 whole entry): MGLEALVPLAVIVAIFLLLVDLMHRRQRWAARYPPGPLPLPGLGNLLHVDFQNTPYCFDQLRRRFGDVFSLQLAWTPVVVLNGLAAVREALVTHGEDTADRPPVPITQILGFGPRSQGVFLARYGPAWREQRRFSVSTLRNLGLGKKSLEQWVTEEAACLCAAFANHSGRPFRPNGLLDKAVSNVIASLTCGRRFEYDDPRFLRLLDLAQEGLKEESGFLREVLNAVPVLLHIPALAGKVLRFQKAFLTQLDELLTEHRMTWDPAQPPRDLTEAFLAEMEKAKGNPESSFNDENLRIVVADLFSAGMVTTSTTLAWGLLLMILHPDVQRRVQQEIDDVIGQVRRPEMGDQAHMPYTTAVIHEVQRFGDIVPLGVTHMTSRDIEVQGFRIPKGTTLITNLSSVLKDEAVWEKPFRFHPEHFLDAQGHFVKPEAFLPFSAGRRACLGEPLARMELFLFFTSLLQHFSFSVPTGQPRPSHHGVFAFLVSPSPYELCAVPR
Description: as §2

[5] = Liver microsomal metabolic stability, dog; format: in vitro ADME; conditions: liver microsomes, 0.5 mg/mL microsomes, 1 μM compound, NADPH, read-out: Liver microsomal stability T1/2
Description: as §1

[6] = male, Balb-c, mouse, plasma, IV, 1 mg/kg
[7] = male, Balb-c, mouse, plasma, PO, 5 mg/kg
[8] = male, rat, plasma, 1 mg/kg, IV, 1 mpk
[9] = male, rat, plasma, 5 mg/kg, PO, 5 mpk

- stability of different kinds of liver microsomes (in words) [1]: significant advantages
- F ([2]; PO 5 mg/kg vs IV 1 mg/kg): 59%
- AUC(0-inf) [2, 6]: 0.368 µM·h
- AUC(0-t) [2, 6]: 0.365 µM·h
- MRT inf [2, 6]: 12 min
- clearance [2, 6]: 78 mL/min/kg
- half-life [2, 6]: 36 min
- Vd ([2]; male, Balb-c, mouse, plasma, IV, 1 mg/kg, read-out: Vss): 1 L/kg
- AUC(0-inf) [2, 7]: 1.09 µM·h
- AUC(0-t) [2, 7]: 1.08 µM·h
- Cmax [2, 7]: 1200 nM
- Tmax [2, 7]: 18 min
- half-life [2, 7]: 66 min
- IC50 (Colo-205 cells; Homo sapiens, COLO 205, 72 hours, CCK-8, numeric values, read-out: Colo-205 IC50): 0.0038 µM
- F ([3]; PO 5 mpk vs IV 1 mpk): 29%
- AUC(0-inf) [3, 8]: 0.304 µM·h
- AUC(0-t) [3, 8]: 0.303 µM·h
- MRT inf [3, 8]: 12 min
- clearance [3, 8]: 94 mL/min/kg
- half-life [3, 8]: 18 min
- Vd ([3]; male, rat, plasma, 1 mg/kg, IV, 1 mpk, read-out: Vss): 0.9 L/kg
- AUC(0-inf) [3, 9]: 0.436 µM·h
- AUC(0-t) [3, 9]: 0.432 µM·h
- Cmax [3, 9]: 476 nM
- Tmax [3, 9]: 18 min
- half-life [3, 9]: 66 min
- IC50 (CYP3A4): > 10 µM
- half-life at 1 μM [4]: 14 min
- IC50 (CYP2D6): > 10 µM
- half-life at 1 μM [5]: 73 min
Structure (SMILES): COc1cc(F)cc([C@@H](CO)NC(=O)[C@@H](C)N2Cc3ccc(-c4nc(NC5CCOCC5)ncc4F)c(F)c3C2=O)c1 [Embodiment 40]
- cell proliferation inhibitory activity (in words) (Colo-205 cells; Colo-205): strong cell proliferation inhibitory activity
